Assay results reported in EP0603240B1, “SAFENING HERBICIDAL PYRAZOLYLSULFONYLUREAS” (priority 1991, dated 1993).
Like-named read-outs stand apart in the source and are kept apart here.

How the values were obtained:
Assay type in all cases: in vivo
[1] = test system: barnyardgrass (Echinochloa crusgalli); test: Example 11, Procedure II: Herbicide No. 1 + metazachlor (No. 14) with antidotes
Experimental: (§1) Containers were filled and compacted with a fumigated silt loam top soil to a depth of about 1.3 cm from the top of the container. A first container was designated as an untreated control, a second container was designated as a herbicide control, and a third container was designated as a herbicide + antidote test container. Each of the containers was seeded with a crop species. A measured amount of herbicide dispersed or dissolved in acetone was applied to a measured quantity of soil. To this same quantity of soil treated with herbicide, there was added a measured amount of antidote dispersed or dissolved in acetone. The quantity of soil treated with the herbicide and antidote was thoroughly mixed to incorporate the herbicide and antidote in the soil uniformly. The seed bed in the third container of soil was covered with the soil treated with the herbicide and antidote and the container was leveled. For each test series, the seed beds of the first and second containers were likewise covered by soil layers. the cover layer of the first container was not treated with herbicide or antidote.
(§2) The containers were then placed on a bench in a greenhouse and sub-irrigated as required for the duration of the test. […] Plant response is measured in terms of percent injury. Antidote efficacy is indicated as the difference in plant injury by the herbicide(s) without the antidote and with the antidote.
(§3) This procedure is the same as Procedure I, but modified in the manner that after incorporation of the chemicals (herbicide and antidote) the containers with the covered seedbed were treated with an initial overhead irrigation equivalent to 0.6 cm rainfall, then subsequently sub-irrigated as required on greenhouse benches.
(§4) In the series of greenhouse tests described below, for routine screening purposes the herbicide/antidote compositions were tested in crop/weed combinations involving corn as the crop and either or both of the weeds barnyardgrass (Echinochloa crusgalli), a monocotyledonous weed, and velvetleaf (Abutilon theophrasti), a dicotyledonous weed. In the tables below, these weeds are indicated by the symbols "BYG" and "VL", respectively.
(§5) In this example, yet another α-chloroacetanilide co-herbicide, metazachlor (Herbicide No. 14) was combined with Herbicide No. 1 for investigation of the effect of various safeners on that composition. Metazachlor is the active ingredient in the commercial herbicide BUTISAN® S, used here as a 500 g/L formulation.

[2] = test system: velvetleaf (Abutilon theophrasti); test: as above
Experimental: as §1, §2, §3, §4, §5

[3] = test system: barnyardgrass (Echinochloa crusgalli); test: Example 18, Procedure II: Herbicide No. 1 + ERADICANE (EPTC + R-25788) with auxiliary antidotes
Experimental: as §1, §2, §3, §4
(§6) In the test reported in this example, the herbicidal composition was similar to that used in Example 16 in that Herbicide No. 1 was combined with EPTC (Herbicide No. 4) as a co-herbicide and the antidotes included Nos. 1, 2, 7, 13 and 15. However, in this test the EPTC was introduced as a formulation of ERADICANE (EPTC + the antidote R-25788, i.e., Antidote No. 1) at an application rate of 8.96 kg/ha. Thus, in this test two antidotes were present, viz. R-25788 and one of the auxilliary antidotes, No. 2, 13 and 15.
(§7) Test procedures were those of Procedure II above.

[4] = test system: velvetleaf (Abutilon theophrasti); test: as above
Experimental: as §1, §2, §3, §4, §6, §7

corn = test: Example 19, Procedure II: Herbicide No. 1 + ERADICANE EXTRA with added antidotes
Experimental: as §1, §2, §3, §6
The test reported in this example was performed in the same manner and with the same antidotes used in Example 18, the only difference being the substitution of the commercial herbicidal product ERADICANE® EXTRA for ERADICANE®. ERADICANE EXTRA is a formulation containing both an antidote, i.e., R-29148 (Antidote No. 5 herein), and an extender, dietholate.

[5] = test system: Giant foxtail (Setaria fabergi); test: Example 24, Procedure II: Herbicide No. 1 + co-herbicides Nos. 4, 6, 7, 12 with Antidote Nos. 15 and 17-21; conditions: Setaria
How it was run: (§8)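 Greenhouse pots, herbicide No. 1 plus co-herbicides and antidote in acetone incorporated into silt loam soil covering the corn seed bed, with giant foxtail and velvetleaf; initial overhead irrigation equal to 0.6 cm rainfall, then sub-irrigation. Antidote at 2.24 kg/ha; percent injury read 13 days after application, duplicate average.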

[6] = test system: velvetleaf (Abutilon theophrasti); test: as above; conditions: Abutilon theophrasti
How it was run: as §8

[7] = Herbicide No.1 0.56 kg/ha + Herbicide No.14 3.36 kg/ha, antidote rate 2.24 kg/ha
[8] = Herbicide No.1 0.56 kg/ha + Herbicide No.14 3.36 kg/ha, antidote rate 8.96 kg/ha
[9] = Herbicide No.1 1.12 kg/ha + Herbicide No.14 3.36 kg/ha, antidote rate 2.24 kg/ha
[10] = Herbicide No.1 1.12 kg/ha + Herbicide No.14 3.36 kg/ha, antidote rate 8.96 kg/ha
[11] = Herbicide No.1 0.56 kg/ha + ERADICANE 8.96 kg/ha, antidote 2.24 kg/ha
[12] = Herbicide No.1 0.56 kg/ha + ERADICANE 8.96 kg/ha, antidote 8.96 kg/ha
[13] = Herbicide No.1 1.12 kg/ha + ERADICANE 8.96 kg/ha, antidote 2.24 kg/ha
[14] = Herbicide No.1 1.12 kg/ha + ERADICANE 8.96 kg/ha, antidote 8.96 kg/ha
[15] = Herbicide No.1 0.56 kg/ha alone, no antidote
[16] = Herbicide No.1 1.12 kg/ha alone, no antidote

## O=C1OC(=O)c2cccc3cccc1c23 [compound 2]
[1]; [7]
  % Injury BYG: 99%
[1]; [8]
  % Injury BYG: 99%
[1]; [9]
  % Injury BYG: 100%
[1]; [10]
  % Injury BYG: 100%
[2]; [7]
  % Injury VL: 85%
[2]; [8]
  % Injury VL: 90%
[2]; [9]
  % Injury VL: 97%
[2]; [10]
  % Injury VL: 85%
[3]; [11]
  % Injury BYG: 93%
[3]; [12]
  % Injury BYG: 85%
[3]; [13]
  % Injury BYG: 85%
[3]; [14]
  % Injury BYG: 95%
[4]; [11]
  % Injury VL: 80%
[4]; [12]
  % Injury VL: 93%
[4]; [13]
  % Injury VL: 70%
[4]; [14]
  % Injury VL: 75%
corn; Herbicide No.1 0.56 kg/ha + ERADICANE EXTRA 8.96 kg/ha, antidote 2.24 kg/ha
  % Injury Corn: 20%
corn; Herbicide No.1 0.56 kg/ha + ERADICANE EXTRA 8.96 kg/ha, antidote 8.96 kg/ha
  % Injury Corn: 25%
corn; Herbicide No.1 1.12 kg/ha + ERADICANE EXTRA 8.96 kg/ha, antidote 2.24 kg/ha
  % Injury Corn: 25%
corn; Herbicide No.1 1.12 kg/ha + ERADICANE EXTRA 8.96 kg/ha, antidote 8.96 kg/ha
  % Injury Corn: 20%

## COC(=O)c1c(Cl)nn(C)c1S(=O)(=O)NC(=O)Nc1nc(OC)cc(OC)n1 [Herbicide No. 1]
[1]; [15]
  % Injury BYG: 75%
[1]; [16]
  % Injury BYG: 80%
[2]; [15]
  % Injury VL: 75%
[2]; [16]
  % Injury VL: 80%
[5]; read-out: % Inhibition GFT, Herb. No. 1 0.07 Kg/ha + Co-Herb. No. 4 1.12 Kg/ha, no antidote
  inhibition at 1120 g/ha: 70%
[5]; read-out: % Inhibition GFT, Herb. No. 1 0.07 Kg/ha + Co-Herb. No. 6 0.14 Kg/ha, no antidote
  inhibition at 140 g/ha: 100%
[5]; read-out: % Inhibition GFT, Herb. No. 1 0.07 Kg/ha + Co-Herb. No. 7 0.28 Kg/ha, no antidote
  inhibition at 280 g/ha: 100%
[5]; read-out: % Inhibition GFT, Herb. No. 1 0.07 Kg/ha + Co-Herb. No. 12 0.28 Kg/ha, no antidote
  inhibition at 280 g/ha: 99%
[5]; read-out: % Inhibition GFT, Herb. No. 1 0.14 Kg/ha + Co-Herb. No. 4 1.12 Kg/ha, no antidote
  inhibition at 1120 g/ha: 80%
[5]; read-out: % Inhibition GFT, Herb. No. 1 0.14 Kg/ha + Co-Herb. No. 6 0.14 Kg/ha, no antidote
  inhibition at 140 g/ha: 100%
[5]; read-out: % Inhibition GFT, Herb. No. 1 0.14 Kg/ha + Co-Herb. No. 7 0.28 Kg/ha, no antidote
  inhibition at 280 g/ha: 100%
[5]; read-out: % Inhibition GFT, Herb. No. 1 0.14 Kg/ha + Co-Herb. No. 12 0.28 Kg/ha, no antidote
  inhibition at 280 g/ha: 99%
[5]; read-out: % Inhibition GFT, Herb. No. 1 0.28 Kg/ha + Co-Herb. No. 4 1.12 Kg/ha, no antidote
  inhibition at 1120 g/ha: 85%
[5]; read-out: % Inhibition GFT, Herb. No. 1 0.28 Kg/ha + Co-Herb. No. 6 0.14 Kg/ha, no antidote
  inhibition at 140 g/ha: 100%
[5]; read-out: % Inhibition GFT, Herb. No. 1 0.28 Kg/ha + Co-Herb. No. 7 0.28 Kg/ha, no antidote
  inhibition at 280 g/ha: 100%
[5]; read-out: % Inhibition GFT, Herb. No. 1 0.28 Kg/ha + Co-Herb. No. 12 0.28 Kg/ha, no antidote
  inhibition at 280 g/ha: 99%
[5]; read-out: % Inhibition GFT, Herb. No. 1 0.56 Kg/ha + Co-Herb. No. 4 1.12 Kg/ha, no antidote
  inhibition at 1120 g/ha: 75%
[5]; read-out: % Inhibition GFT, Herb. No. 1 0.56 Kg/ha + Co-Herb. No. 6 0.14 Kg/ha, no antidote
  inhibition at 140 g/ha: 100%
[5]; read-out: % Inhibition GFT, Herb. No. 1 0.56 Kg/ha + Co-Herb. No. 7 0.28 Kg/ha, no antidote
  inhibition at 280 g/ha: 99%
[5]; read-out: % Inhibition GFT, Herb. No. 1 0.56 Kg/ha + Co-Herb. No. 12 0.28 Kg/ha, no antidote
  inhibition at 280 g/ha: 99%
[6]; read-out: % Inhibition VL, Herb. No. 1 0.07 Kg/ha + Co-Herb. No. 4 1.12 Kg/ha, no antidote
  inhibition at 1120 g/ha: 90%
[6]; read-out: % Inhibition VL, Herb. No. 1 0.07 Kg/ha + Co-Herb. No. 6 0.14 Kg/ha, no antidote
  inhibition at 140 g/ha: 85%
[6]; read-out: % Inhibition VL, Herb. No. 1 0.07 Kg/ha + Co-Herb. No. 7 0.28 Kg/ha, no antidote
  inhibition at 280 g/ha: 90%
[6]; read-out: % Inhibition VL, Herb. No. 1 0.07 Kg/ha + Co-Herb. No. 12 0.28 Kg/ha, no antidote
  inhibition at 280 g/ha: 85%
[6]; read-out: % Inhibition VL, Herb. No. 1 0.14 Kg/ha + Co-Herb. No. 4 1.12 Kg/ha, no antidote
  inhibition at 1120 g/ha: 90%
[6]; read-out: % Inhibition VL, Herb. No. 1 0.14 Kg/ha + Co-Herb. No. 6 0.14 Kg/ha, no antidote
  inhibition at 140 g/ha: 95%
[6]; read-out: % Inhibition VL, Herb. No. 1 0.14 Kg/ha + Co-Herb. No. 7 0.28 Kg/ha, no antidote
  inhibition at 280 g/ha: 90%
[6]; read-out: % Inhibition VL, Herb. No. 1 0.14 Kg/ha + Co-Herb. No. 12 0.28 Kg/ha, no antidote
  inhibition at 280 g/ha: 90%
[6]; read-out: % Inhibition VL, Herb. No. 1 0.28 Kg/ha + Co-Herb. No. 4 1.12 Kg/ha, no antidote
  inhibition at 1120 g/ha: 95%
[6]; read-out: % Inhibition VL, Herb. No. 1 0.28 Kg/ha + Co-Herb. No. 6 0.14 Kg/ha, no antidote
  inhibition at 140 g/ha: 95%
[6]; read-out: % Inhibition VL, Herb. No. 1 0.28 Kg/ha + Co-Herb. No. 7 0.28 Kg/ha, no antidote
  inhibition at 280 g/ha: 95%
[6]; read-out: % Inhibition VL, Herb. No. 1 0.28 Kg/ha + Co-Herb. No. 12 0.28 Kg/ha, no antidote
  inhibition at 280 g/ha: 95%
[6]; read-out: % Inhibition VL, Herb. No. 1 0.56 Kg/ha + Co-Herb. No. 4 1.12 Kg/ha, no antidote
  inhibition at 1120 g/ha: 90%
[6]; read-out: % Inhibition VL, Herb. No. 1 0.56 Kg/ha + Co-Herb. No. 6 0.14 Kg/ha, no antidote
  inhibition at 140 g/ha: 95%
[6]; read-out: % Inhibition VL, Herb. No. 1 0.56 Kg/ha + Co-Herb. No. 7 0.28 Kg/ha, no antidote
  inhibition at 280 g/ha: 95%
[6]; read-out: % Inhibition VL, Herb. No. 1 0.56 Kg/ha + Co-Herb. No. 12 0.28 Kg/ha, no antidote
  inhibition at 280 g/ha: 90%
